d = 2'-deoxy (DNA); r = 2'-OH (RNA)
Experiments:
Assay type in all cases: cell-based
[1] = test system: Human Primary Nasal Epithelial Cells; assay: Fluorescence microscopy of oligo entry into HNEpC; settings: 24-48 hours, fluorescent filter 10x/20x, delivery per FIG. 35
[2] = test system: primary human lung small airway epithelial cells; assay: Fluorescence microscopy of oligo entry into HSAEC; settings: 24-48 hours, fluorescent filter 10x/20x, lipofectamine, poly-arginine or no reagent per FIG. 1
[3] = test system: primary human lung bronchial/tracheal epithelial cells; assay: Fluorescence microscopy of oligo entry into HBTEC; settings: 24-48 hours, fluorescent filter 10x/20x, delivery per FIG. 20
[4] = test system: human primary lung small airway epithelial cells (HSAEC); assay: FACS detection of intercellular delivery of oligos in HSAEC; settings: for cells with intercellular signals of the oligos, Arginine compared with lipofectamine (FACS): 10 ul/well Arginine vs lipofectamine

| Substance | entry into cells, microscopic analysis [1] | entry into cells, microscopic analysis [2] | entry into cells, microscopic analysis [3] | intensities of fluorescent signals in cells (FACS) vs no-treatment control ([4]; without lipofectamine or Arginine reagents) | cells with intercellular signals of the oligos, Arginine compared with lipofectamine (FACS) [4] | intensities of fluorescent signals in cells (FACS) vs no-treatment control ([4]; Arginine only (10 ul/well)) | intensities of fluorescent signals in cells (FACS) vs no-treatment control ([4]; with lipofectamine) |
| --- | --- | --- | --- | --- | --- | --- | --- |
| TGTTAATTGGAACGCCTTGTC (FANA modified, pattern not given here, FITC label) [VS_ASO_1-FANA-FITC] | can enter epithelial cells | entry | entry | significantly stronger | – | – | – |
| VS_DsiRNA-Cy5: DsiRNA SEQ ID NOs: 23 & 24, target N-protein, Cy5 labeled (chain 1 AAACUAAAAUGUCUGAUAAUGGACC; chain 2 GGUCCAUUAUCAGACAUUUUAGUUUGU; chain 1: sugars from the 5' end r23 d2, backbone not given here; chain 2: chemistry not given here; Cy5 label) | can enter epithelial cells | entry | entry | – | more cells with intercellular signals of the oligos | significantly higher | significantly higher |
| TGTTAATTGGAACGCCTTGTC (Cy3 label, position not given here) [VS_ASO_2-Cy3] | – | – | – | – | more cells with intercellular signals of the oligos | significantly higher | significantly higher |

Reference: patent US11732264B2, “Compositions and methods for treating COVID-19” (Vast Sea Biotechnology, Inc., priority 2020, dated 2023)
